Where two headings read alike, the source gives them in different places. Square brackets hold non-standard residues; d marks the D form. Peptide text beside a SMILES is read from it. * marks the point of attachment. Morpholide = C1CN(*)CCO1; Nle = CCCC[C@H](N)C(=O)O; Piperidide = C1CCN(*)CC1; Pyrrolidide = C1CCN(*)C1; NHDecyl = CCCCCCCCCCN*; PhAc = O=C(Cc1ccccc1)*; Bz = O=C(c1ccccc1)*; NHBu = CCCCN*
Molecular target: T1, VLA-4 (Homo sapiens, UniProt P05556+P13612)
T1 construct: host or cells: Jurkat (human T lymphoblastic line)
Assay type: cell-based
Experimental: Binding inhibition is measured here as a concentration of peptide that inhibits one-half the binding between a standard number of Jurkat cells and a standard amount of CS-1 peptide bound to the surface of a microtiter plate well. Those concentrations are conveniently expressed as IC50 values, smaller numbers indicating a lower concentration required to inhibit 50 percent binding and therefore greater potency. Further specifics of this assay are provided hereinafter.
Jurkat cells (ATCC TIB 152), a human T lymphoblastic line, labeled with ^51 chromium were used to assay in vitro binding inhibition provided by various peptides discussed herein.
The plates were prepared as follows: The 25-mer CS1 peptide (SEQ ID NO:1) dissolved at 0.5-1 μg/ml in a buffer of 0.1M NaHCO3 at pH 9.5 tha also contained 10 μg/ml of bovine serum albumin (BSA) or a conjugate o the CS1 peptide linked to ovalbumin (CS1-OVA) dissolved at 1-2.5 μg/ml in the same buffer was used as the substrate. Each well of the microtiter plates was coated with 50 μl of substrate or buffer alone for controls The wells were permitted to dry out completely and were then rinsed twice with PBS at pH 7.4. Nonspecific binding sites of each well were then blocked using 200 μl per well of RPMI/1 percent BSA for two hours at room temperature. Both solid phaseaffixed substrates provided similar results.
Jurkat cells (3-5×10^6 cells) were placed into a 15 ml Falcon.TM roundbottom tube with a cap. The tube was centrifuged, and the extra medium was then removed.
Two hundred microliters of a ^51 Cr labeling solution were added to th centrifuged cells and maintained in contact with the cells for 90-120 minutes in a warm room. This procedure typically provides about 50,000-100,000 cpm/well with about 80-100 percent cell viability. Longer contact times provide a greater amount of labeling but lower cell viability.
The labeled cells are washed with (i) complete medium, (ii) 1 mM EDTA/PBS and then (iii) RPMI/1 percent BSA free of serum components. The cells are centrifuged after each washing. The cells are finally resuspended in serumfree RPMI/1 percent BSA at a concentration of 1×10^6 viabl cells/ml, which provides a concentration that is diluted by onehalf in th assay.
Inhibitor peptides are prepared as stock solutions at 20 mg/ml in DMSO in 1.5 ml cryogenic screwcap vials, and were stored at -70° C. Using Flow™ roundbottom or Vbottom microtiter plates, the inhibitor peptides were prepared at twice the assay concentration in RPMI/1 percent BSA at 6 μl/well.
Four initial dilutions were typically used.
The ^51 Crlabeled cells (1×10^6 cells at 60 μl/well) were then admixed with the diluted peptide solutions. The admixtures were maintained at room temperature (about 22° C.) for 30 minutes.
One hundred microliters of each inhibitor peptide/cell admixture were transferred to the substratecoated wells. This was done in triplicate for each dilution. The resulting plates were incubated for 30 minutes at 37° C. and then washed gently three times with RPMI/1 percent BSA at 200 μl/well. Binding was observed microscopically, particularly after the second wash.
The bound cells were then lysed by the addition of a 0.5 percent solution of sodium dodecylsulfate in water at 100 μl/well. The resulting solutions were then processed for counting and calculation of IC50 values following usual procedures. Appropriate positive and negative controls were used with each plate so that the results of separate assays could be normalized and compared.

[1] = relative to standard peptide SEQ ID NO:3 (=1), normalized IC50, about one-tenth or less of SEQ ID NO:3 assigned zero

T1 sequence (P13612 34-1032): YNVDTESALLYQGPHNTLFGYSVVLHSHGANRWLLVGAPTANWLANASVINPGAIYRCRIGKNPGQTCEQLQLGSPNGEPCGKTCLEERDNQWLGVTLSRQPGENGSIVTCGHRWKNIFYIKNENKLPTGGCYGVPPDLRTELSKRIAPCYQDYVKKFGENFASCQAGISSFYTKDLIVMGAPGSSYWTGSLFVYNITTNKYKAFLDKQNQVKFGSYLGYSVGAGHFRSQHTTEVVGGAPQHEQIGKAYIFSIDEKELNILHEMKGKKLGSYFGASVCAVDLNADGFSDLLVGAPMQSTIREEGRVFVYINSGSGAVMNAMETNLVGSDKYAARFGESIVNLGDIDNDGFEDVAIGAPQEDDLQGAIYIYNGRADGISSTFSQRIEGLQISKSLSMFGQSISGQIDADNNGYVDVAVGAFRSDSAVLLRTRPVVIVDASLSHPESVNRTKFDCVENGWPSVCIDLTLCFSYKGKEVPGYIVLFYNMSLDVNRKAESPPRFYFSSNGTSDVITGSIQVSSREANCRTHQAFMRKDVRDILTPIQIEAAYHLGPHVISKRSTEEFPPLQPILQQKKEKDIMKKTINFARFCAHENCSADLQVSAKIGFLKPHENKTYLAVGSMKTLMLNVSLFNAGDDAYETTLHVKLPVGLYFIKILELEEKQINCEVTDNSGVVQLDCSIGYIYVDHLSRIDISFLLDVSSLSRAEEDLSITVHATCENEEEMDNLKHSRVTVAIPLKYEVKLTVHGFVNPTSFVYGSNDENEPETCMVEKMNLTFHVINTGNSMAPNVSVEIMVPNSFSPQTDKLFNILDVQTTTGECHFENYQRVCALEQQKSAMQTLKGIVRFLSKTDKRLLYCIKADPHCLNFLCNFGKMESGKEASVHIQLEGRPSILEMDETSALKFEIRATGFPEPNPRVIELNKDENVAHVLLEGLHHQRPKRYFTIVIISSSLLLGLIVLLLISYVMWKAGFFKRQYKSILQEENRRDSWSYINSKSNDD
T1 sequence (P05556 21-798): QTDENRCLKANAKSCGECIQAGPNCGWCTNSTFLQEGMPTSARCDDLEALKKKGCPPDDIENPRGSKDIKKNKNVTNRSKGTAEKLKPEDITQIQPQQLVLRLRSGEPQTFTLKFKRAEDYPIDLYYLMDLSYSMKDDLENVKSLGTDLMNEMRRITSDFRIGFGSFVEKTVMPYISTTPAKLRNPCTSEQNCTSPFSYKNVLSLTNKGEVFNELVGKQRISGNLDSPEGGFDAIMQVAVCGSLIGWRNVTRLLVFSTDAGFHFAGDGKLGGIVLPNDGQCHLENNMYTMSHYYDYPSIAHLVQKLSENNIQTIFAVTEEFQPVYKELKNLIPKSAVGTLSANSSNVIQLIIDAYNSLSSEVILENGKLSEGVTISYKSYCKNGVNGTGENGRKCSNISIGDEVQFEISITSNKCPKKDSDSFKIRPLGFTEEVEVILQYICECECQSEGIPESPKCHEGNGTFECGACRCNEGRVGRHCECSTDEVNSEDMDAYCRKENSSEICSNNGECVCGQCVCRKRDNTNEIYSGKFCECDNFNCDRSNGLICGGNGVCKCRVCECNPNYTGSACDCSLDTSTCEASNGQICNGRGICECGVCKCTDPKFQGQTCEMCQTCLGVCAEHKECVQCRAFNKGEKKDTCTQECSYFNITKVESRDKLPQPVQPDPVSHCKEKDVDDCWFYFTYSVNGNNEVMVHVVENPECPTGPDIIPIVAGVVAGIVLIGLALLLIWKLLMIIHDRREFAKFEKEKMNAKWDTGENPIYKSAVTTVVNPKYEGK

Q: With `CC[C@H](C)[C@H](NC(=O)[C@H](CCC(=O)O)NC(=O)[C@@H]1CCCN1C(=O)CNC(=O)[C@H](Cc1c[nH]cn1)NC(=O)[C@H](CC(C)C)NC(=O)[C@H](CC(N)=O)NC(=O)[C@@H]1CCCN1C(=O)[C@H](Cc1c[nH]cn1)NC(=O)[C@@H]1CCCN1C(=O)[C@H](CC(C)C)NC(=O)[C@@H](NC(=O)[C@@H](NC(=O)[C@H](CC(C)C)NC(=O)[C@H](CCC(N)=O)NC(=O)[C@@H]1CCCN1C(=O)[C@H](CC(C)C)NC(=O)[C@H](CCC(=O)O)NC(=O)[C@@H](N)CC(=O)O)C(C)C)[C@@H](C)O)C(=O)N[C@@H](CC(C)C)C(=O)N[C@@H](CC(=O)O)C(=O)N[C@H](C(=O)N1CCC[C@H]1C(=O)N[C@@H](CO)C(=O)N[C@H](C(=O)O)[C@@H](C)O)C(C)C` [CS-1 peptide, reference compound] (H-DELPQLVTLPHPNLHGPEILDVPST-OH) as the molecule, how does the “binding inhibition (in words)” value (compared to standard 10-mer / B12) read?
A: three times more potent

Q: `CC(=O)N[C@@H](CC(C)C)C(=O)N[C@@H](CC(=O)O)C(=O)N[C@@H](Cc1ccccc1)C(N)=O` [L D F acetyl amide] (Ac-Leu-Asp-Phe-NH2) was tested. Which “RELATIVE POTENCY (inhibition of VLA-4 binding CS-1)” value did it give?
A: 0

Q: With `CC(=O)N[C@@H](CC(C)C)C(=O)N[C@@H](CC(=O)O)C(=O)N[C@H](C(N)=O)C(C)C` [L D V acetyl amide, reference compound] (Ac-Leu-Asp-Val-NH2) as the molecule, how does the “RELATIVE POTENCY (inhibition of VLA-4 binding CS-1)” value read?
A: 0

Q: With `CC(C)C[C@H](N)C(=O)N[C@@H](CC(=O)O)C(=O)N[C@H](C(N)=O)C(C)C` [L D V free amine amide, reference compound] (H-Leu-Asp-Val-NH2) as the molecule, how does the “RELATIVE POTENCY (inhibition of VLA-4 binding CS-1)” value (relative to standard peptide SEQ ID NO:3 (=1), normalized IC50, about one-tenth or less of SEQ ID NO:3 assigned zero, listed as Leu--Asp--Val (LDV) Nfre amine Camide) read?
A: zero

Q: `CCCC[C@H](NC(=O)Cc1ccccc1)C(=O)N[C@@H](CC(=O)O)C(=O)N[C@@H](Cc1ccccc1)C(=O)N1CCC[C@@H]1C(N)=O` [X K D F p phenylacetyl amide J = Nle] (PhAc-[Nle]DF[dP]-NH2) was tested. Which “RELATIVE POTENCY (inhibition of VLA-4 binding CS-1)” value [1] did it give?
A: 49

Q: `CCCCCCCCCCNC(=O)[C@@H]1CCCN1C(=O)[C@H](Cc1ccccc1)NC(=O)[C@H](CC(=O)O)NC(=O)[C@H](CC(C)C)NC(=O)Cc1ccccc1` [X L D F P Z phenylacetyl decylamide] (PhAc-LDFP-NHDecyl) was tested. Which “RELATIVE POTENCY (inhibition of VLA-4 binding CS-1)” value [1] did it give?
A: 2

Q: For `CC(C)C[C@H](NC(=O)Cc1ccccc1)C(=O)N[C@@H](CC(=O)O)C(=O)N[C@@H](Cc1ccccc1)C(=O)N1CCOCC1` [X L D F Z phenylacetyl morpholinamide, N--phenylacetyl--Leu--Asp--Phe--morpholinamide] (PhAc-Leu-Asp-Phe-Morpholide), which “RELATIVE POTENCY (inhibition of VLA-4 binding CS-1)” value [1] is on record?
A: 844

Q: How did the “RELATIVE POTENCY (inhibition of VLA-4 binding CS-1)” value [1] turn out when `CCCCNC(=O)[C@H](Cc1ccccc1)NC(=O)[C@H](CC(=O)O)NC(=O)[C@H](CC(C)C)NC(=O)Cc1ccccc1` [X L D F Z phenylacetyl n-butylamide] (PhAc-Leu-Asp-Phe-NHBu) was run?
A: 3

Q: How did the “RELATIVE POTENCY (inhibition of VLA-4 binding CS-1)” value [1] turn out when `CC(C)C[C@H](NC(=O)Cc1ccccc1)C(=O)N[C@@H](CC(=O)O)C(=O)N[C@@H](Cc1ccccc1)C(=O)N1CCNCC1` [X L D F Z phenylacetyl piperazinamide] was run?
A: 506

Q: How did the “RELATIVE POTENCY (inhibition of VLA-4 binding CS-1)” value [1] turn out when `CC(C)C[C@H](NC(=O)Cc1ccccc1)C(=O)N[C@@H](CC(=O)O)C(=O)N[C@@H](Cc1ccccc1)C(=O)N1CCCCC1` [X L D F Z phenylacetyl piperidinamide, N--phenylacetyl--Leu--Asp--Phe--piperidinamide] (PhAc-Leu-Asp-Phe-Piperidide) was run?
A: 231

Q: How did the “RELATIVE POTENCY (inhibition of VLA-4 binding CS-1)” value [1] turn out when `CC(C)C[C@H](NC(=O)Cc1ccccc1)C(=O)N[C@@H](CC(=O)O)C(=O)N[C@@H](Cc1ccccc1)C(=O)N1CCCC1` [X L D F Z phenylacetyl pyrrolidinamide] (PhAc-Leu-Asp-Phe-Pyrrolidide) was run?
A: 250

Q: For `CC(C)C[C@H](NC(=O)c1ccccc1)C(=O)N[C@@H](CC(=O)O)C(=O)N[C@@H](Cc1ccccc1)C(=O)N1CCC[C@@H]1C(N)=O` [X L D F p benzoyl amide] (Bz-LDF[dP]-NH2), which “RELATIVE POTENCY (inhibition of VLA-4 binding CS-1)” value [1] is on record?
A: 75
